Columns and labels:
Format in all cases: cell-based
OR5A1 = molecular target: T1, OR5A1 (Homo sapiens, UniProt Q8NGJ0); assay: Luciferase reporter concentration-response analysis on OR5A1; conditions: CRE-luciferase; empty vector pEFIBRHO as control
T1 construct: expressed in transfected cells; host or cells: HEK293T-RTP1A1/RTP2
T1 sequence (Q8NGJ0 1-315): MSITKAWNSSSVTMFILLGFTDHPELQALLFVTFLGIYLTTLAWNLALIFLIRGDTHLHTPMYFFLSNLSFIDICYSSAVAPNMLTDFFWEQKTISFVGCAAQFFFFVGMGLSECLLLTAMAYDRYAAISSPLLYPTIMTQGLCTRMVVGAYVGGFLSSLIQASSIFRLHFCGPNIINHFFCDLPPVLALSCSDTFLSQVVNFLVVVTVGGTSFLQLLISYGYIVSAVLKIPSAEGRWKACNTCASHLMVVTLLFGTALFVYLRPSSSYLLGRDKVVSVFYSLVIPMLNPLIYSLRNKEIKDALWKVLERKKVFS
Experimental: (§1) HEK293T-RTP1A1/RTP2 cells were maintained in minimal essential medium (EMEM, Lonza) containing 10% fetal bovine serum (M10). These cells were generated by transfecting HEK293T with an expression vector containing the sequences of the chaperone proteins RTP1A1 and RTP2 and a resistance gene to puromycin, using Lipofectamine 2000. The recombinant cell population, used in these experiments, was selected by adding 10 μg/ml of puromycin into the culture medium and subsequently subcloned (WO 2014/191047 A1).
(§2) Odorant molecules were diluted at a concentration of 1 mole/liter (M) into dimethyl sulfoxide (DMSO) to generate stock solutions.
(§3) For concentration-response analysis, serial dilutions of the tested molecules were prepared from stock solutions in EMEM plated into 96-well plates.
For the initial deorphanisation screening and dose-response analysis, a Luciferase-based gene reporter assay (Promega, Leiden, The Nederlands) was used. […] Sixteen hours after transfection, the culture medium was replaced by serum-free EMEM containing the tested compounds at a determined concentration. After four hours of incubation at 37° C. degree, cells were lysed and processed for luminescence measurement. Luminescene emission was recorded. Results were expressed as luciferase activity ([…] (RLU)) or as percentage of the response induced by 10 μM of the adenylate cyclase activator Forskolin. […]

OR11A1 = molecular target: T2, OR11A1 (Homo sapiens, UniProt Q9GZK7); assay: Luciferase reporter concentration-response analysis on OR11A1; conditions: CRE-luciferase; empty vector pEFIBRHO as control
T2 construct: expressed in transfected cells; host or cells: HEK293T-RTP1A1/RTP2
T2 sequence (Q9GZK7 1-315): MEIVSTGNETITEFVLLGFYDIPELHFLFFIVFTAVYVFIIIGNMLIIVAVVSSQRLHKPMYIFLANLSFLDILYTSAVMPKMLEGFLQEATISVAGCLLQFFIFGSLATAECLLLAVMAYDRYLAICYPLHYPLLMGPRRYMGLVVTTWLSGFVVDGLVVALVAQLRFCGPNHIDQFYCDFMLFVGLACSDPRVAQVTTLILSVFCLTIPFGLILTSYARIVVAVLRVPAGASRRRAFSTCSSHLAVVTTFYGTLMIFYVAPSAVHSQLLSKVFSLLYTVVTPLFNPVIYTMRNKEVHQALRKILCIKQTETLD
Experimental: (§4) HEK293T-RTP1A1/RTP2 cells were maintained in minimal essential medium (EMEM, Lonza) containing 10% fetal bovine serum (M10). These cells were generated by transfecting HEK293T with an expression vector containing the sequences of the chaperone proteins RTP1A1 and RTP2 and a resistance gene to puromycin, using Lipofectamine 2000.
as §2, §3
(§5) For the initial deorphanisation screening and dose-response analysis, a Luciferase-based gene reporter assay (Promega, Leiden, The Nederlands) was used. Briefly, cells were platted on Poly-D-lysine-coated 96-well and transfected with a plasmid containing the CRE-luciferase and a plasmid containing the olfactory receptor. Sixteen hours after transfection, the culture medium was replaced by serum-free EMEM containing the tested compounds at a determined concentration. After four hours of incubation at 37° C. degree, cells were lysed and processed for luminescence measurement. Luminescene emission was recorded. Results were expressed as luciferase activity (Relative […] Unit (RLU)) or as percentage of the response induced by 10 μM of the adenylate cyclase activator Forskolin. An empty plasmid is used as negative control.
(§6) 35 musk compounds from the four structurally different chemical groups previously described were tested in concentration-response analyses (Table 2). In each experiment, an empty vector was used as negative control (pEFIBRHO). […] Full results including the calculated EC50 are given in Table 2; “non active” represent negative experiments, no activation after testing.
These compounds were tested in concentration-response analysis in luciferase assays, as described previously. In each experiment, an empty vector was used as negative control (pEFIBRHO).

chimeric OR5A2_variant 1 = molecular target: T3, chimeric OR5A2_variant 1 (Homo sapiens, UniProt Q8NGI9, F293L/H55R/I289L/M58T); assay: Luciferase reporter concentration-response analysis on chimeric OR5A2_variant 1; conditions: CRE-luciferase, empty vector pEFIBRHO as control
T3 construct: expressed in transfected cells; host or cells: HEK293T-RTP1A1/RTP2
T3 sequence (Q8NGI9 with tags, fused parts or gaps H55R/M58T/I289L/F293L): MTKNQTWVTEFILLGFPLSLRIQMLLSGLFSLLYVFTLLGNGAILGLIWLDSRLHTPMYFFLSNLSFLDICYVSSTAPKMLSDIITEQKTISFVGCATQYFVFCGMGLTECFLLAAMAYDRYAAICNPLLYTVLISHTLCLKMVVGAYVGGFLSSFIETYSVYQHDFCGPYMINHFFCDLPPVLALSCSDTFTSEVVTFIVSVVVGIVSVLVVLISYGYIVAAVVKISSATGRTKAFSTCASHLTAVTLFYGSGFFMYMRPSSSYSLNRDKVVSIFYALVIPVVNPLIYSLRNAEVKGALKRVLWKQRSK
Experimental: as §4, §2, §3, §5
To test if the amino acids substitution could impact the musk sensitivity, and specificity and to validate the Krautwurst's model, luciferase assays were performed as described previously after transfection of the chimeric OR5A2_variant 1. Cells were treated with semi-logarithmic serial dilutions of musk compounds from the four structurally different groups described earlier.
In each experiment, an empty vector was used as negative control (pEFIBRHO).

OR5A2_variant 1 = molecular target: T4, OR5A2_variant 1 (Homo sapiens, UniProt Q8NGI9); assay: Luciferase reporter concentration-response analysis on OR5A2_variant 1; conditions: CRE-luciferase; semi-logarithmic serial dilutions; empty vector pEFIBRHO as control
T4 construct: expressed in transfected cells; host or cells: HEK293T-RTP1A1/RTP2
T4 sequence (Q8NGI9 1-324): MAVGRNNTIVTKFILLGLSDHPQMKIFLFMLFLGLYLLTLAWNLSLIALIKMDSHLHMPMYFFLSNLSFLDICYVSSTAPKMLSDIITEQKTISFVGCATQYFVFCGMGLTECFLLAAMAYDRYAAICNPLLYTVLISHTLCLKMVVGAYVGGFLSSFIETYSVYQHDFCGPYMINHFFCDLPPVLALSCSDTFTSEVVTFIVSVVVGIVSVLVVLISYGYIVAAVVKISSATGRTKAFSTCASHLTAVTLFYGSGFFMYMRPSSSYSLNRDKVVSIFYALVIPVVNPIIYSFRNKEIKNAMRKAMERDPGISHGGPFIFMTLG
Experimental: as §4, §2, §3, §5, §6

OR5AN1 = molecular target: T5, OR5AN1 (Homo sapiens, UniProt Q8NGI8, E89G); assay: Luciferase reporter concentration-response analysis on OR5AN1; conditions: CRE-luciferase; empty vector pEFIBRHO as control
T5 construct: expressed in transfected cells; host or cells: HEK293T-RTP1A1/RTP2
T5 sequence (Q8NGI8 1-311 E89G): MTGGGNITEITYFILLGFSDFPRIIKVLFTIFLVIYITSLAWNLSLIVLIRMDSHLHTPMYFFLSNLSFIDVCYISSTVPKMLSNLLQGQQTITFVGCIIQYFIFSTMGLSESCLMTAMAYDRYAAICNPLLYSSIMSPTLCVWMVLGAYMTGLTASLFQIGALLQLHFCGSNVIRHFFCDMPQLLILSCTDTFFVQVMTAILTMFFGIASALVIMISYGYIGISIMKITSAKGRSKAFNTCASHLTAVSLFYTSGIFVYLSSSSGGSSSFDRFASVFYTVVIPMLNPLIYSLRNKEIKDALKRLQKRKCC
Experimental: as §1, §2, §3, §5
In these analyses we also included ORs previously described as musk-specific receptors OR5AN1 (SEQ ID n° 7) (WO 2015/020158 A1, Shirasu et al. 2014 Neuron 81, 165-78, Sato-Akuhara N et al. 2016 J Neurosci. 36(16), 4482-91) and OR11A1 (SEQ ID n° 8) (WO 2016/201152 A1). […] Therefore, OR5A1 was included in the analyses. 35 musk compounds from the four structurally different chemical groups previously described were tested in concentration-response analyses (Table 2). In each experiment, an empty vector was used as negative control (pEFIBRHO). […] Full results including the calculated EC50 are given in Table 2; “non active” represent negative experiments, no activation after testing. […]

**Q.** For `CC(=O)/C=C/C1=C(C)CCCC1(C)C` [Beta-ionone], which “activation of OR5A1, concentration-response” value (OR5A1) is on record?
**A.** The value was “able to activate OR5A1 only”.

**Q.** And the “activation of OR11A1, concentration-response” value (OR11A1)?
**A.** The value was “able to activate OR5A1 only”.

**Q.** What about the “activation of chimeric OR5A2_variant 1, concentration-response” value (chimeric OR5A2_variant 1) of the same compound?
**A.** The value was “not able to activate”.

**Q.** And the “activation of chimeric OR5A2_variant 1, concentration-response” value (chimeric OR5A2_variant 1; listed as beta-ionone)?
**A.** The value was “not activated”.

**Q.** And the “activation of OR5A2 (OR5A2_variant 1), concentration-response” value (OR5A2_variant 1)?
**A.** Its value is “stimulated neither”.

**Q.** And the “activation of OR5AN1, concentration-response” value (OR5AN1)?
**A.** The value was “stimulated neither”.

— patent publication US12461089B2, “Olfactory receptor involved in the perception of musk fragrance and the use thereof” (ChemoSensoryX Biosciences SA, priority 2017, dated 2025)
